For orientation: IC50 means the concentration that inhibits the measured activity by half. Read a high IC50 as a need for much substance.

Where a SMILES comes first, the peptide text is derived from it.

In this assay the target is TFPI (Homo sapiens, UniProt P10646). Put plainly: IC50 [nM].
Chain of TFPI (P10646 29-304 limits assumed): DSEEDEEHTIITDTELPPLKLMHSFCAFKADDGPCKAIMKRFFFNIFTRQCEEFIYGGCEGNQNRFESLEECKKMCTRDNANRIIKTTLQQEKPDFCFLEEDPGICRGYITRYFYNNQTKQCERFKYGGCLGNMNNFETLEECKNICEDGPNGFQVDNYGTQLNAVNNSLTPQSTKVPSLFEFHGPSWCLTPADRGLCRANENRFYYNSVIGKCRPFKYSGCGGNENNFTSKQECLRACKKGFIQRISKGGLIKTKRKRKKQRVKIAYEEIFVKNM
With `CSCC[C@H](NC(=O)[C@H](CCC(=O)O)NC(=O)[C@H](CCCCN)NC(=O)[C@H](CO)NC(=O)[C@H](CCCNC(=N)N)NC(=O)[C@H](CCCCN)NC(=O)[C@H](CO)NC(=O)[C@@H](NC(=O)[C@H](Cc1c[nH]cn1)NC(=O)[C@H](CC(C)C)NC(=O)[C@H](CCC(N)=O)NC(=O)[C@@H](NC(=O)[C@H](C)NC(=O)[C@H](CC(C)C)NC(=O)[C@@H]1CCCN1C(=O)[C@H](Cc1ccccc1)NC(=O)[C@H](CO)NC(=O)[C@H](C)NC(=O)[C@H](C)NC(=O)CNC(=O)[C@H](CO)NC(C)=O)C(C)C)C(C)C)C(=O)N[C@@H](C)C(=O)N[C@@H](CC(C)C)C(=O)N[C@@H](C)C(=O)N[C@@H](CCCNC(=N)N)C(=O)N[C@@H](CC(C)C)C(=O)N[C@@H](Cc1ccc(O)cc1)C(=O)N[C@@H](Cc1ccc(O)cc1)C(=O)N[C@@H](CCCCN)C(=O)N[C@H](C(=O)N[C@@H](CO)C(N)=O)[C@@H](C)O` [JBT0662 | 2131] (Ac-SGAASFPLAVQLHVSKRSKEMALARLYYKTS-NH2), half-maximal inhibition (IC50) was put at 13.8 µM. This counts as double-digit micromolar. To `CSCC[C@H](NC(=O)[C@H](CCC(=O)O)NC(=O)[C@H](CCCCN)NC(=O)[C@H](CO)NC(=O)[C@H](CCCNC(=N)N)NC(=O)[C@H](CCCCN)NC(=O)[C@H](CO)NC(=O)[C@@H](NC(=O)[C@H](Cc1c[nH]cn1)NC(=O)[C@H](CC(C)C)NC(=O)[C@H](C)NC(=O)[C@@H](NC(=O)[C@H](C)NC(=O)[C@H](CC(C)C)NC(=O)[C@@H]1CCCN1C(=O)[C@H](Cc1ccccc1)NC(=O)[C@H](CO)NC(=O)[C@H](C)NC(=O)[C@H](Cc1ccc(O)cc1)NC(=O)CNC(=O)[C@H](CO)NC(C)=O)C(C)C)C(C)C)C(=O)N[C@@H](C)C(=O)N[C@@H](CC(C)C)C(=O)N[C@@H](C)C(=O)N[C@@H](CCCNC(=N)N)C(=O)N[C@@H](CC(C)C)C(=O)N[C@@H](Cc1ccc(O)cc1)C(=O)N[C@@H](Cc1ccc(O)cc1)C(=O)N[C@@H](CCCCN)C(=O)N[C@H](C(=O)N[C@@H](CO)C(N)=O)[C@@H](C)O` [JBT0670 | 2007] (Ac-SGYASFPLAVALHVSKRSKEMALARLYYKTS-NH2) belongs 2.51 µM; to `CSCC[C@H](NC(=O)[C@H](CCC(=O)O)NC(=O)[C@H](CCCCN)NC(=O)[C@H](CO)NC(=O)[C@H](CCCNC(=N)N)NC(=O)[C@H](CCCCN)NC(=O)[C@H](CO)NC(=O)[C@@H](NC(=O)[C@H](Cc1c[nH]cn1)NC(=O)[C@H](C)NC(=O)[C@H](CCC(N)=O)NC(=O)[C@@H](NC(=O)[C@H](C)NC(=O)[C@H](CC(C)C)NC(=O)[C@@H]1CCCN1C(=O)[C@H](Cc1ccccc1)NC(=O)[C@H](CO)NC(=O)[C@H](C)NC(=O)[C@H](Cc1ccc(O)cc1)NC(=O)CNC(=O)[C@H](CO)NC(C)=O)C(C)C)C(C)C)C(=O)N[C@@H](C)C(=O)N[C@@H](CC(C)C)C(=O)N[C@@H](C)C(=O)N[C@@H](CCCNC(=N)N)C(=O)N[C@@H](CC(C)C)C(=O)N[C@@H](Cc1ccc(O)cc1)C(=O)N[C@@H](Cc1ccc(O)cc1)C(=O)N[C@@H](CCCCN)C(=O)N[C@H](C(=O)N[C@@H](CO)C(N)=O)[C@@H](C)O` [JBT0671 | 2019] (Ac-SGYASFPLAVQAHVSKRSKEMALARLYYKTS-NH2), 5.84 µM. To `CSCC[C@H](NC(=O)[C@H](CCC(=O)O)NC(=O)[C@H](CCCCN)NC(=O)[C@H](CO)NC(=O)[C@H](CCCNC(=N)N)NC(=O)[C@H](CCCCN)NC(=O)[C@H](C)NC(=O)[C@@H](NC(=O)[C@H](Cc1c[nH]cn1)NC(=O)[C@H](CC(C)C)NC(=O)[C@H](CCC(N)=O)NC(=O)[C@@H](NC(=O)[C@H](C)NC(=O)[C@H](CC(C)C)NC(=O)[C@@H]1CCCN1C(=O)[C@H](Cc1ccccc1)NC(=O)[C@H](CO)NC(=O)[C@H](C)NC(=O)[C@H](Cc1ccc(O)cc1)NC(=O)CNC(=O)[C@H](CO)NC(C)=O)C(C)C)C(C)C)C(=O)N[C@@H](C)C(=O)N[C@@H](CC(C)C)C(=O)N[C@@H](C)C(=O)N[C@@H](CCCNC(=N)N)C(=O)N[C@@H](CC(C)C)C(=O)N[C@@H](Cc1ccc(O)cc1)C(=O)N[C@@H](Cc1ccc(O)cc1)C(=O)N[C@@H](CCCCN)C(=O)N[C@H](C(=O)N[C@@H](CO)C(N)=O)[C@@H](C)O` [JBT0674 | 2008] (Ac-SGYASFPLAVQLHVAKRSKEMALARLYYKTS-NH2) belongs 1.17 µM. To `CSCC[C@H](NC(=O)[C@H](CCC(=O)O)NC(=O)[C@H](CCCCN)NC(=O)[C@H](CO)NC(=O)[C@H](CCCNC(=N)N)NC(=O)[C@H](C)NC(=O)[C@H](CO)NC(=O)[C@@H](NC(=O)[C@H](Cc1c[nH]cn1)NC(=O)[C@H](CC(C)C)NC(=O)[C@H](CCC(N)=O)NC(=O)[C@@H](NC(=O)[C@H](C)NC(=O)[C@H](CC(C)C)NC(=O)[C@@H]1CCCN1C(=O)[C@H](Cc1ccccc1)NC(=O)[C@H](CO)NC(=O)[C@H](C)NC(=O)[C@H](Cc1ccc(O)cc1)NC(=O)CNC(=O)[C@H](CO)NC(C)=O)C(C)C)C(C)C)C(=O)N[C@@H](C)C(=O)N[C@@H](CC(C)C)C(=O)N[C@@H](C)C(=O)N[C@@H](CCCNC(=N)N)C(=O)N[C@@H](CC(C)C)C(=O)N[C@@H](Cc1ccc(O)cc1)C(=O)N[C@@H](Cc1ccc(O)cc1)C(=O)N[C@@H](CCCCN)C(=O)N[C@H](C(=O)N[C@@H](CO)C(N)=O)[C@@H](C)O` [JBT0675 | 2136] (Ac-SGYASFPLAVQLHVSARSKEMALARLYYKTS-NH2) belongs 18.3 µM; to `CSCC[C@H](NC(=O)[C@H](CCC(=O)O)NC(=O)[C@H](CCCCN)NC(=O)[C@H](CO)NC(=O)[C@H](C)NC(=O)[C@H](CCCCN)NC(=O)[C@H](CO)NC(=O)[C@@H](NC(=O)[C@H](Cc1c[nH]cn1)NC(=O)[C@H](CC(C)C)NC(=O)[C@H](CCC(N)=O)NC(=O)[C@@H](NC(=O)[C@H](C)NC(=O)[C@H](CC(C)C)NC(=O)[C@@H]1CCCN1C(=O)[C@H](Cc1ccccc1)NC(=O)[C@H](CO)NC(=O)[C@H](C)NC(=O)[C@H](Cc1ccc(O)cc1)NC(=O)CNC(=O)[C@H](CO)NC(C)=O)C(C)C)C(C)C)C(=O)N[C@@H](C)C(=O)N[C@@H](CC(C)C)C(=O)N[C@@H](C)C(=O)N[C@@H](CCCNC(=N)N)C(=O)N[C@@H](CC(C)C)C(=O)N[C@@H](Cc1ccc(O)cc1)C(=O)N[C@@H](Cc1ccc(O)cc1)C(=O)N[C@@H](CCCCN)C(=O)N[C@H](C(=O)N[C@@H](CO)C(N)=O)[C@@H](C)O` [JBT0676 | 2137] (Ac-SGYASFPLAVQLHVSKASKEMALARLYYKTS-NH2), 37.4 µM; to `CSCC[C@H](NC(=O)[C@H](CCC(=O)O)NC(=O)[C@H](CCCCN)NC(=O)[C@H](C)NC(=O)[C@H](CCCNC(=N)N)NC(=O)[C@H](CCCCN)NC(=O)[C@H](CO)NC(=O)[C@@H](NC(=O)[C@H](Cc1c[nH]cn1)NC(=O)[C@H](CC(C)C)NC(=O)[C@H](CCC(N)=O)NC(=O)[C@@H](NC(=O)[C@H](C)NC(=O)[C@H](CC(C)C)NC(=O)[C@@H]1CCCN1C(=O)[C@H](Cc1ccccc1)NC(=O)[C@H](CO)NC(=O)[C@H](C)NC(=O)[C@H](Cc1ccc(O)cc1)NC(=O)CNC(=O)[C@H](CO)NC(C)=O)C(C)C)C(C)C)C(=O)N[C@@H](C)C(=O)N[C@@H](CC(C)C)C(=O)N[C@@H](C)C(=O)N[C@@H](CCCNC(=N)N)C(=O)N[C@@H](CC(C)C)C(=O)N[C@@H](Cc1ccc(O)cc1)C(=O)N[C@@H](Cc1ccc(O)cc1)C(=O)N[C@@H](CCCCN)C(=O)N[C@H](C(=O)N[C@@H](CO)C(N)=O)[C@@H](C)O` [JBT0677 | 2009] (Ac-SGYASFPLAVQLHVSKRAKEMALARLYYKTS-NH2), 1.91 µM. `CSCC[C@H](NC(=O)[C@H](CCC(=O)O)NC(=O)[C@H](CCCCN)NC(=O)[C@H](CO)NC(=O)[C@H](CCCNC(=N)N)NC(=O)[C@H](CCCCN)NC(=O)[C@H](CO)NC(=O)[C@@H](NC(=O)[C@H](Cc1c[nH]cn1)NC(=O)[C@H](CC(C)C)NC(=O)[C@H](CCC(N)=O)NC(=O)[C@@H](NC(=O)[C@H](C)NC(=O)[C@H](CC(C)C)NC(=O)[C@@H]1CCCN1C(=O)[C@H](Cc1ccccc1)NC(=O)[C@H](CO)NC(=O)[C@H](C)NC(=O)[C@H](Cc1ccc(O)cc1)NC(=O)CNC(=O)[C@H](CO)NC(C)=O)C(C)C)C(C)C)C(=O)N[C@@H](C)C(=O)N[C@@H](CC(C)C)C(=O)N[C@@H](C)C(=O)N[C@@H](CCCNC(=N)N)C(=O)N[C@@H](C)C(=O)N[C@@H](Cc1ccc(O)cc1)C(=O)N[C@@H](Cc1ccc(O)cc1)C(=O)N[C@@H](CCCCN)C(=O)N[C@H](C(=O)N[C@@H](CO)C(N)=O)[C@@H](C)O` [JBT0685 | 2021] (Ac-SGYASFPLAVQLHVSKRSKEMALARAYYKTS-NH2) had an IC50 of 9.13 µM. To `CSCC[C@H](NC(=O)[C@H](CCC(=O)O)NC(=O)[C@H](CCCCN)NC(=O)[C@H](CO)NC(=O)[C@H](CCCNC(=N)N)NC(=O)[C@H](CCCCN)NC(=O)[C@H](CO)NC(=O)[C@@H](NC(=O)[C@H](Cc1c[nH]cn1)NC(=O)[C@H](CC(C)C)NC(=O)[C@H](CCC(N)=O)NC(=O)[C@@H](NC(=O)[C@H](C)NC(=O)[C@H](CC(C)C)NC(=O)[C@@H]1CCCN1C(=O)[C@H](Cc1ccccc1)NC(=O)[C@H](CO)NC(=O)[C@H](C)NC(=O)[C@H](Cc1ccc(O)cc1)NC(=O)CNC(=O)[C@H](CO)NC(C)=O)C(C)C)C(C)C)C(=O)N[C@@H](C)C(=O)N[C@@H](CC(C)C)C(=O)N[C@@H](C)C(=O)N[C@@H](CCCNC(=N)N)C(=O)N[C@@H](CC(C)C)C(=O)N[C@@H](C)C(=O)N[C@@H](Cc1ccc(O)cc1)C(=O)N[C@@H](CCCCN)C(=O)N[C@H](C(=O)N[C@@H](CO)C(N)=O)[C@@H](C)O` [JBT0686 | 2140] (Ac-SGYASFPLAVQLHVSKRSKEMALARLAYKTS-NH2) belongs 13.5 µM; to `CSCC[C@H](NC(=O)[C@H](CCC(=O)O)NC(=O)[C@H](CCCCN)NC(=O)[C@H](CO)NC(=O)[C@H](CCCNC(=N)N)NC(=O)[C@H](CCCCN)NC(=O)[C@H](CO)NC(=O)[C@@H](NC(=O)[C@H](Cc1c[nH]cn1)NC(=O)[C@H](CC(C)C)NC(=O)[C@H](CCC(N)=O)NC(=O)[C@@H](NC(=O)[C@H](C)NC(=O)[C@H](CC(C)C)NC(=O)[C@@H]1CCCN1C(=O)[C@H](Cc1ccccc1)NC(=O)[C@H](CO)NC(=O)[C@H](C)NC(=O)[C@H](Cc1ccc(O)cc1)NC(=O)CNC(=O)[C@H](CO)NC(=O)[C@H](CO)NC(=O)CN)C(C)C)C(C)C)C(=O)N[C@@H](C)C(=O)N[C@@H](CC(C)C)C(=O)N[C@@H](C)C(=O)N[C@@H](CCCNC(=N)N)C(=O)N[C@@H](CC(C)C)C(=O)N[C@@H](Cc1ccc(O)cc1)C(=O)N[C@@H](Cc1ccc(O)cc1)C(=O)N[C@@H](CCCCN)C(=O)N[C@H](C(=O)N[C@@H](CO)C(=O)O)[C@@H](C)O` [JBT0788] (H-GSSGYASFPLAVQLHVSKRSKEMALARLYYKTS-OH), 16.2 µM.

These data come from patent US10201586B2 (dated 2019).
